Experimental data as given in ChEMBL document CHEMBL1201862, “PubChem BioAssay data set” (2004).
The source made the active and inactive calls.

What was measured:
[1] = molecular target: T1, Eukaryotic translation initiation factor 2-alpha kinase 3 (Homo sapiens, UniProt Q9NZJ5); assay: Dose response cell-based high-throughput screening assay to measure PERK inhibition. [Related pubchem assays: 1416 ]; assay type: functional
T1 sequence (Q9NZJ5 whole entry): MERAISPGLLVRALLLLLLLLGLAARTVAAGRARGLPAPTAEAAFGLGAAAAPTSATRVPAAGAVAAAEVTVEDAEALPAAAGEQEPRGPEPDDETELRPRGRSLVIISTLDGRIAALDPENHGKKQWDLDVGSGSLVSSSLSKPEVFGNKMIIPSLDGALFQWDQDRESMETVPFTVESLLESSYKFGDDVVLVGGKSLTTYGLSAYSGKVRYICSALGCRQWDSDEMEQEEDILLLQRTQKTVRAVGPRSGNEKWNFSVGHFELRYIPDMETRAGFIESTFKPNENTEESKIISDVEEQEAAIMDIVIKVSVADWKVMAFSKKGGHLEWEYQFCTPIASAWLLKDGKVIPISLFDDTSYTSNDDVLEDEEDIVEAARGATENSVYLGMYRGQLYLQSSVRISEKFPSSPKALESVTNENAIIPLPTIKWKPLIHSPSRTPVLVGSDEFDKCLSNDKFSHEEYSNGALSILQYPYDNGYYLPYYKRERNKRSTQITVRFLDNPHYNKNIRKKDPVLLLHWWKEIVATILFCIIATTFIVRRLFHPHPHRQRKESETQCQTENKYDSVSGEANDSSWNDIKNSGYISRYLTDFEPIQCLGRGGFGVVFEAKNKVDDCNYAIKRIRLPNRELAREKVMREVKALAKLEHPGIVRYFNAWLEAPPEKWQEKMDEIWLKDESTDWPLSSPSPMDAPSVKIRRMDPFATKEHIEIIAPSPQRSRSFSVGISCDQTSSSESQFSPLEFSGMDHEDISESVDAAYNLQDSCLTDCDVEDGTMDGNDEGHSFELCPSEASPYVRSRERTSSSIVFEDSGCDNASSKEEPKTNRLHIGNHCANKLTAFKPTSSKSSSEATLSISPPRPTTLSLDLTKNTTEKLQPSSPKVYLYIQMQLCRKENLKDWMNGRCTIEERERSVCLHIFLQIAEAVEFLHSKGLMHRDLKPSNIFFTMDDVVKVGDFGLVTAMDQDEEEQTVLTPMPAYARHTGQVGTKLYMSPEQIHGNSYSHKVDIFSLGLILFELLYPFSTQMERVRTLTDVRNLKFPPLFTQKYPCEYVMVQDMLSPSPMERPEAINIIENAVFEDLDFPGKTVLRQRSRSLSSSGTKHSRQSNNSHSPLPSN

[2] = molecular target: T1, Eukaryotic translation initiation factor 2-alpha kinase 3; assay: Counterscreen assay for PERK inhibitors: Dose response cell-based high throughput screening assay to measure inhibition of PERK at 6 hours. [Related pubchem assays: 1522, 1416 ]; assay type: functional
Protein skinhead-1 = molecular target: T2, Protein skinhead-1 (Caenorhabditis elegans, UniProt P34707); assay type: functional
T2 sequence (P34707 whole entry): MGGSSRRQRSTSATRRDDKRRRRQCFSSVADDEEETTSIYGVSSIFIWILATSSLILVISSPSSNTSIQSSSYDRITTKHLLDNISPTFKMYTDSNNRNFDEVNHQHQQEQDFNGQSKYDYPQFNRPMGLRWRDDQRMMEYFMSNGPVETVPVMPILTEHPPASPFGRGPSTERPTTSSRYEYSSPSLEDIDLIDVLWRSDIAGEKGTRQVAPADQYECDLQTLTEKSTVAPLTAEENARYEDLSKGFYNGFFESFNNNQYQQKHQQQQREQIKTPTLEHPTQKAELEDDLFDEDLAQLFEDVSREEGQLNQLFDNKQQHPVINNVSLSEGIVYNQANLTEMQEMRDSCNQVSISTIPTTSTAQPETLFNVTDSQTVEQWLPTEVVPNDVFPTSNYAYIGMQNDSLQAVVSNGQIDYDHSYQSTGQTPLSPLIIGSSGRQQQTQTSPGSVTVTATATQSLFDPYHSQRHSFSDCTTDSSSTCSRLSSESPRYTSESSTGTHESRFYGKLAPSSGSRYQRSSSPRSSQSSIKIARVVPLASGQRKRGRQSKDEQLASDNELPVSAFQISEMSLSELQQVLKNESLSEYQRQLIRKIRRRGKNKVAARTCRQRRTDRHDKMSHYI

X-box-binding protein 1 = X-box-binding protein 1 (Homo sapiens, UniProt P17861); assay type: functional, Cricetulus griseus;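 note: confirmatory dose-response counter-screen serving a CHOP assay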
[3] = molecular target: T3, Replicative DNA helicase DnaB (Mycobacterium tuberculosis, UniProt P9WMR3); assay: DnaB intein splicing inhibitors, dose response, biochemical, cell-free fluorescence (AID 449749); assay type: functional
T3 sequence (P9WMR3 whole entry): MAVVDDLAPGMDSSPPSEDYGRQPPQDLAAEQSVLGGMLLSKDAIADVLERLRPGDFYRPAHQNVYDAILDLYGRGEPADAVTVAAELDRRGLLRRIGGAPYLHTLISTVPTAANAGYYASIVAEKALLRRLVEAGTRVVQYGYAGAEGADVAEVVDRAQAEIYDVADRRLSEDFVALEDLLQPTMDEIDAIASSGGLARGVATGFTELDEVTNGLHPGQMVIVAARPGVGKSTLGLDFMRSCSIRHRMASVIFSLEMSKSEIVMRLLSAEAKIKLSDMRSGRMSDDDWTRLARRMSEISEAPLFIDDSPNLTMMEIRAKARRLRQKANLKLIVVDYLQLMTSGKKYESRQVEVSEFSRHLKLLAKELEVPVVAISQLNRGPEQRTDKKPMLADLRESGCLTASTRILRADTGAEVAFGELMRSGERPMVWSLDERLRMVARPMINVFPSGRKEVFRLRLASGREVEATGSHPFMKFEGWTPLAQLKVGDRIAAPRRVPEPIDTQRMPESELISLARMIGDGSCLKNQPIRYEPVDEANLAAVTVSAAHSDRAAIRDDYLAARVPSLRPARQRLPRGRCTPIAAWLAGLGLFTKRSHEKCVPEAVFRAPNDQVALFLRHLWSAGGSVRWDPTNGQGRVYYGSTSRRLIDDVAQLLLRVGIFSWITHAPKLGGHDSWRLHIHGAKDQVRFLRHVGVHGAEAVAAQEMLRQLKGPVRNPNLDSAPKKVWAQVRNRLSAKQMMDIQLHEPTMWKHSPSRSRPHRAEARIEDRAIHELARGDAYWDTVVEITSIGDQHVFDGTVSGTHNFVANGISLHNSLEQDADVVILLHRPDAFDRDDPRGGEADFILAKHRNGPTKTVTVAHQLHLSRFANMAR

Protein RecA = molecular target: T4, Protein RecA (Mycobacterium tuberculosis, UniProt P9WHJ3); assay: Fluorescence Cell-Free Homogeneous Dose Retest to Identify Inhibitors of RecA-Intein Splicing Activity. [Related pubchem assays (depositor defined):AID2097, AID2223, AID489010, AID492950]; assay type: functional
T4 sequence (P9WHJ3 whole entry): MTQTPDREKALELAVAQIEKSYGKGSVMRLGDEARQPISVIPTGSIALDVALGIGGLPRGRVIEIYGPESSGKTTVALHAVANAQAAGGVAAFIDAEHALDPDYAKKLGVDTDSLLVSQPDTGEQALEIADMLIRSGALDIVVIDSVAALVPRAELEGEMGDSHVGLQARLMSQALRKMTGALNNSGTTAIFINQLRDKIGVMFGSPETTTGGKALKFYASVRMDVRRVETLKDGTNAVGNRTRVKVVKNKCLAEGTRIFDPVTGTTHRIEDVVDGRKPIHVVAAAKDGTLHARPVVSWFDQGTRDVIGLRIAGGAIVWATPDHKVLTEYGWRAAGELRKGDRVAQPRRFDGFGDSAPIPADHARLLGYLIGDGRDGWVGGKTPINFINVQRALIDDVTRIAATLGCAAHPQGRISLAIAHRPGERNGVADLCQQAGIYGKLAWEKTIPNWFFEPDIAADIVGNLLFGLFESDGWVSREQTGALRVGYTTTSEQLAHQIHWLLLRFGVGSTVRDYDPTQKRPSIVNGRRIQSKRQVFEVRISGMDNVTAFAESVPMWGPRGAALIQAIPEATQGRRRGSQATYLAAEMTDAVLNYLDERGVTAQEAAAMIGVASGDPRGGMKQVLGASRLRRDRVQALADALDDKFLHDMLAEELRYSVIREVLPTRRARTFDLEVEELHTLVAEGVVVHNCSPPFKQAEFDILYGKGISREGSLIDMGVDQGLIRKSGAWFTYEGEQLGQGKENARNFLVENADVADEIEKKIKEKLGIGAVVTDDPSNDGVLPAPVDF

HeLa = assay: HeLa cell cytotoxicity, dose response, cytotoxicity control, 24 h, cherry-picked samples (AID 504726); assay type: functional, cell-based; conditions: Homo sapiens;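 note: potency for cytotoxicity as loss of luminescence signal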
Salmon testes DNA = assay: DNA intercalators displacing acridine orange, dose response, artefact control for KSHV LANA DNA-binding inhibitor project, biochemical, fluorescence polarization, cherry-picked samples, set 2 (AID 504727); design: species or system Salmonidae
ORF 73 = molecular target: T5, ORF 73 (Human herpesvirus 8, UniProt O40947); assay: inhibitors of C-LANA binding to LBS DNA, dose response, biochemical, fluorescence polarization, cherry-picked samples (AID 504725); design: species or system Human gammaherpesvirus 8;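 note: fluorescence polarization of a labeled DNA duplex reporting LANA DNA binding; potency is for inhibitors that block LANA binding to the DNA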
T5 sequence (O40947 whole entry): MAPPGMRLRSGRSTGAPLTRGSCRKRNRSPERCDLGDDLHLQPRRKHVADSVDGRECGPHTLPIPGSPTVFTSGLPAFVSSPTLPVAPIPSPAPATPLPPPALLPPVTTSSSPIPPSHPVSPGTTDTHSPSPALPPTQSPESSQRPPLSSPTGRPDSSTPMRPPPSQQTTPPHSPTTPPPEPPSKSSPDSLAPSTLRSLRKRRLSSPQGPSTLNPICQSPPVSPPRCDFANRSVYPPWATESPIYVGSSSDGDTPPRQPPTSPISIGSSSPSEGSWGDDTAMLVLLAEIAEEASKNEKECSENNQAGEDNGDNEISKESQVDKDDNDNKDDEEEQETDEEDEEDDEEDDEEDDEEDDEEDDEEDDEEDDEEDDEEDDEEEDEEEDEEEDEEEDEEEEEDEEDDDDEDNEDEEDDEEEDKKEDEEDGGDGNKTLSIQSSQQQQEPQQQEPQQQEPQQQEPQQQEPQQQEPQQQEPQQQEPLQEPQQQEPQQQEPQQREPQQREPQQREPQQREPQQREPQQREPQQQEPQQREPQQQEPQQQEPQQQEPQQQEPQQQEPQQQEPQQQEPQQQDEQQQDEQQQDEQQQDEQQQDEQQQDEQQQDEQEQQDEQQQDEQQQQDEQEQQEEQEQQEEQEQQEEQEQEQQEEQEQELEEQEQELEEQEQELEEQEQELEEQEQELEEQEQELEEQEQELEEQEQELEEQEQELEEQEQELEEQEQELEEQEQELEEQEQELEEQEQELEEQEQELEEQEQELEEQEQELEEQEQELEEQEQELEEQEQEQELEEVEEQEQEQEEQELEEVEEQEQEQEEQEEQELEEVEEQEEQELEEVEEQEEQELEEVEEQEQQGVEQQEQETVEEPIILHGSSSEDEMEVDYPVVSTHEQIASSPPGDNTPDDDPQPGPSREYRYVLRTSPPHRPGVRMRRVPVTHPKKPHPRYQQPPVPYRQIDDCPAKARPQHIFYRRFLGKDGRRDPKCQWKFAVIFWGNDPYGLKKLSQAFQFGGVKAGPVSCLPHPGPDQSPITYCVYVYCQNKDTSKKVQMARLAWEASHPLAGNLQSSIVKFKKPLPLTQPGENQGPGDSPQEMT

[4] = molecular target: T6, Endoribonuclease toxin MazF (Escherichia coli K-12, UniProt P0AE70); assay: MazF toxin RNase activators, dose response, biochemical, fluorescence, single-stranded RNA substrate, uHTS hits (AID 588481); assay type: functional
T6 sequence (P0AE70 whole entry): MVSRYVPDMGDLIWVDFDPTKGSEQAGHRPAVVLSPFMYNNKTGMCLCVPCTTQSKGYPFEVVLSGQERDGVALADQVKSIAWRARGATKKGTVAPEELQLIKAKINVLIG

[5] = molecular target: T6, Endoribonuclease toxin MazF; assay: fluorescent RNA oligo signal without MazF, dose response, counter-screen for MazEF activator project, biochemical, fluorescence, single-stranded RNase substrate (AID 588502); assay type: functional
[6] = molecular target: Lysosomal acid glucosylceramidase (Homo sapiens, UniProt P04062); assay: Dose response cell-based high throughput screening assay to identify enhancers of beta-glucosidase activity. [Related pubchem assays: 784 ]; assay type: functional
[7] = Cytotoxicity screening for potential Inhibitors of Bacterial Capsule Biogenesis. [Related pubchem assays (depositor defined):AID488970]; assay type: functional
INS1 = assay: beta cell apoptosis inhibitors, cytokine rescue, dose response, luminescence, retest (AID 449756); assay type: functional, cell-based; conditions: Rattus norvegicus, INS1;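 note: cell death triggered by IL-1 beta plus TNF-alpha plus IFN-gamma mixture; protective hits raise ATP signal compared with cytokine alone wells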

X-box-binding protein 1, sequence (P17861 whole entry): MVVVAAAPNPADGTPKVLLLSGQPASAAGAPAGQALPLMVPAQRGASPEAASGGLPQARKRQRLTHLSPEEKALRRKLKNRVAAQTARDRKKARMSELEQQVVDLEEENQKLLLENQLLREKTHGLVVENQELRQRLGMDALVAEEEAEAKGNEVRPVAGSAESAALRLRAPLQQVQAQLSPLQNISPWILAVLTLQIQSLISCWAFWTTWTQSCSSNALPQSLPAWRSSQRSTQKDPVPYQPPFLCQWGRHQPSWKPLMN
Lysosomal acid glucosylceramidase, sequence (P04062 whole entry): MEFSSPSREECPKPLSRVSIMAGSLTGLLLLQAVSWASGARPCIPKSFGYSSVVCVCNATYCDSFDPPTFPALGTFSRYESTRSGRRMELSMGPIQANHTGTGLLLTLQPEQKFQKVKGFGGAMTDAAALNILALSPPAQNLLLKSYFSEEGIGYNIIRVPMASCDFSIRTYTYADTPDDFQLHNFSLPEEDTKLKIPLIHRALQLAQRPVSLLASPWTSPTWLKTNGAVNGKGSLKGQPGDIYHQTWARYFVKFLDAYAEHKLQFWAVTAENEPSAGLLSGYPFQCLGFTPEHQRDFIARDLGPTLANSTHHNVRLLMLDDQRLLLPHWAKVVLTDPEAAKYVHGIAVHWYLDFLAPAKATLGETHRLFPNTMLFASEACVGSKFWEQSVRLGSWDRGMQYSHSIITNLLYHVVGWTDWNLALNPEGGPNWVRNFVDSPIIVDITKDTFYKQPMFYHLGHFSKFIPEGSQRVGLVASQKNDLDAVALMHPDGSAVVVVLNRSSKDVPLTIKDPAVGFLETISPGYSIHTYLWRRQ

SMILES: CCOc1cc(C(N)=O)cc(Br)c1OC
- EC50 [1]: > 55.7 µM (not active)
- EC50 [2]: > 55.7 µM (not active)
- IC50 (Protein skinhead-1): > 100 µM (inactive)

SMILES: CC1(C)CC(C(CCN(Cc2ccccc2)C(=O)c2ccco2)c2ccc(F)cc2)CCO1 (centres undefined)
- Absolute IC50 (XBP1) (X-box-binding protein 1): 10 µM
- AC50 [3]: 6.07 µM (active)
- EC50 (Protein RecA): 20.9 µM (active)

SMILES: COc1ccc2c(c1)c1nc3ccccc3nc1n2CC(=O)OC(C)C
- AC50 (HeLa): 216 µM (active)
- AC50 (Salmon testes DNA): 134 µM (active)
- AC50 (ORF 73): 77 µM (active)
- EC50 [4]: > 99 µM (inactive)
- EC50 [5]: 19.6 µM (active)

SMILES: CC(=O)N1C(C(=O)O)CSC1c1cccc(C)c1 (centres undefined)
- EC50 [6]: > 50 µM (not active)

SMILES: O=C(N/N=C/c1ccc(O)cc1O)c1ccc(NC(=O)C2CCCCC2)cc1
- CC50 [7]: 8.95 µM (active)
- AC50 (INS1): 4.01 µM (active)
